The molecules below were run on UT7/EPO Cell line (assay: Cell Proliferation Assay (UT7/EPO, ViaLight Plus)). Details: proliferative effect; compounds at 10 uM; UT7/EPO cells starved of EPO overnight; 72 hours at 37° C.; ViaLight Plus kit.
Type: cell-based, human
Description: The primary testing for the examplfied compounds was performed in UT7/EPO Cell line. UT7/EPO is human leukemia cell line, obtained from Dr. Norio Komatsu (Blood, Vol 82 (2), pp 456-464, 1993). These cells express endogenous EPO receptor and are dependant upon EPO for growth and proliferation. Briefly, the cells were starved of EPO overnight and plated in 96 or 384 well plates. The compounds were added to the cells at 10 uM concentration. The plates were then incubated at 37° C. for 72 hours. The proliferative effect of the compounds was measured by a commercially available kit from Lonza (ViaLight Plus).

`Cn1cccc1C(=O)Nc1ccc(N(C(=O)c2cccn2C)c2ccc(NC(=O)c3ccc(N4CCC(O)CC4)cc3)cc2)cc1` [Compound 745] and `Cn1cccc1C(=O)Nc1ccc(Oc2ccc(NC(=O)c3ccc(N4CCC(O)CC4)cc3)cc2)cc1` [Compound 915, N-(4-(4-(4-(4-Hydroxypiperidin-1-yl)benzamido)phenoxy)phenyl)-1-methyl-1H-pyrrole-2-carboxamide] are the same in “Activity (%)” value: 17% for the first, 17% for the second.

Compared with `COc1ccc(-c2cc(NC(=O)c3ccc(C(=O)Nc4cc(-c5ccc(OC)cc5)[nH]n4)cc3)n[nH]2)cc1` [Compound 473, N,N′-bis(5-(4-Methoxyphenyl)-1H-pyrazol-3-yl)terephthalamide], `COc1cccc(/C=N/NC(=O)c2ccc(C(=O)Nc3ccc4nc(-c5ccc(N(C)C)cc5)[nH]c4c3)cc2)c1` [Compound 278, (E)-N-(2-(4-(dimethylamino)phenyl)-1H-benzo[d]imidazol-6-yl)-4-(2-(3-methoxybenzylidene)hydrazinecarbonyl)benzamide] is higher in “Activity (%)” value: 11% for the first, 23% for the second.

First: CS(=O)(=O)Nc1ccc2[nH]c(-c3ccc(C(=O)Nc4ccc(N5CCOCC5)cc4)cc3)nc2c1 [Compound 449]
Second: O=C(Nc1ccc2[nH]c(-c3ccc(N4CCCC4)cc3)nc2c1)c1ccc(N2CCCC2)cc1 [Compound 225, 4-(pyrrolidin-1-yl)-N-(2-(4-(pyrrolidin-1-yl)phenyl)-1H-benzo[d]imidazol-5-yl)benzamide]
The “Activity (%)” value of the first is lower: 16% for the first, 20% for the second.

First: COc1ccc(-c2nc3cc(NC(=O)c4cccs4)ccc3[nH]2)cc1 [Compound 210, N-(2-(4-methoxyphenyl)-1H-benzo[d]imidazol-5-yl)thiophene-2-carboxamide]
Second: COc1ccc(-c2nc3cc(NC(=O)c4ccc(-n5cccc5)cc4)ccc3[nH]2)cc1 [Compound 1729, N-(2-(4-Methoxyphenyl)-1H-benzimidazol-5-yl)-4-pyrrolylbenzamide]
The “Activity (%)” value of the first is higher: 17% for the first, 14% for the second.

`Cc1cc(C(=O)Nc2ccc(C(=O)c3ccc(NC(=O)c4ccc(N5CCOCC5)cc4)cc3)cc2)[nH]n1` [Compound 500, 3-Methyl-N-(4-(4-(4-morpholinobenzamido)benzoyl)phenyl)-1H-pyrazole-5-carboxamide] and `O=C(Nc1ccc(C(=O)c2ccc(NC(=O)C3CC3)cc2)cc1)c1ccc(N2CCOCC2)cc1` [Compound 359] are the same in “Activity (%)” value: 19% for the first, 19% for the second.

Going from `O=C(Nc1ccc2cc[nH]c2c1)c1ccc(-c2nc3ccc(-c4cccnc4)cc3[nH]2)cc1` [Compound 650, N-(1H-indol-6-yl)-4-(6-(pyridin-3-yl)-1H-benzo[d]imidazol-2-yl)-benzamide] to `O=C(Nc1ccc2[nH]c(-c3ccccc3)nc2c1)c1ccc(-c2ccccc2)cc1` [Compound 172, N-(2-Phenyl-1H-benzo[d]imidazol-5-yl)-[1,1′-biphenyl]-4-carboxamide], the “Activity (%)” value falls from 13% to 12%.

Going from `O=C(Nc1ccc(Nc2ccc(NC(=O)c3ccc4[nH]cnc4c3)cc2)cc1)c1ccc2[nH]cnc2c1` [Compound 590, N,N′-(4,4′-Azanediylbis(4,1-phenylene))bis(1H-benzimidazole-5-carboxamide)] to `O=C(Nc1ccc(Nc2ccc(NC(=O)c3ccc4c(ccn4CCO)c3)cc2)cc1)c1ccc(N2CCC(O)CC2)cc1` [Compound 775], the “Activity (%)” value rises from 12% to 22%.

Going from `O=C(Nc1ccccc1)c1ccc(-c2nc3cc(NC(=O)c4ccccc4)ccc3[nH]2)cc1` [Compound 1747, N-Phenyl-4-(5-benzamido-1H-benzimidazol-2-yl)benzamide] to `CN(C)c1ccc(C(=O)Nc2ccc(-c3nc4cc(NC(=O)c5ccc(N(C)C)cc5)ccc4[nH]3)cc2)cc1` [Compound 1700, 4-Dimethylamino-N-(4-(5-(4-dimethylaminobenzamido)-1H-benzimidazol-2-yl)phenyl)benzamide], the “Activity (%)” value falls from 19% to 17%.

Going from `O=C(Nc1ccc2[nH]c(-c3ccc(N4CCOCC4)cc3)nc2c1)C(=O)Nc1ccc2nc(-c3ccc(N4CCOCC4)cc3)[nH]c2c1` [Compound 434, N,N′-bis-(2-(4-Morpholinophenyl)-1H-benzimidazol-5-yl)oxalamide] to `O=C(Nc1ccc2c(cnn2-c2ccc(NCC3CC3)cc2)c1)c1ccc(N2CCOCC2)cc1` [Compound 530], the “Activity (%)” value falls from 15% to 11%.

First: CN(C)c1ccc(C(=O)Nc2ccc3[nH]c(-c4ccc(N(C)C)cc4)nc3c2)cc1 [Compound 206, 4-(dimethylamino)-N-(2-(4-(dimethylamino)phenyl)-1H-benzo[d]imidazol-5-yl)benzamide]
Second: CN(C)c1ccc(NC(=O)c2ccc(-c3nc4cc(C(=O)Nc5ccc(N(C)C)cc5)ccc4[nH]3)cc2)cc1 [Compound 197, N-(4-(dimethylamino)phenyl)-2-(4-((4-(dimethylamino)phenyl)carbamoyl)phenyl)-1H-benzo[d]imidazole-5-carboxamide]
The “Activity (%)” value of the first is lower: 18% for the first, 20% for the second.

Going from `Cn1ccc2cc(C(=O)N/N=C/c3cccc(/C=N/NC(=O)c4ccc5c(ccn5C)c4)c3)ccc21` [Compound 125, (N′,N′″E,N′,N′″E)-N′,N′″-(1,3-phenylenebis(methanylylidene))bis(1-methyl-1H-indole-5-carbohydrazide)] to `CN(C)c1ccc(C(=O)N/N=C/c2cccc(/C=N/NC(=O)c3ccc(N(C)C)cc3)c2)cc1` [Compound 103, (N′,N′″E,N′,N′″E)-N′,N′″-(1,3-phenylenebis(methanylylidene))bis(4-(dimethylamino)benzohydrazide)], the “Activity (%)” value rises from 15% to 16%.

Going from `O=C(Nc1ccc2c(c1)ncn2-c1ccc(NC(=O)C2CC2)cc1)c1ccc(N2CCC(O)CC2)cc1` [Compound 560, N-(4-(5-(4-(4-Hydroxypiperidin-1-yl)benzamido)-1H-benzimidazol-1-yl)phenyl)cyclopropylcarboxamide] to `O=C(Nc1ccc(-n2ncc3cc(O)ccc32)cc1)c1ccc(N2CCC(O)CC2)cc1` [Compound 990, N-(4-(5-(Hydroxy)-1H-indazol-1-yl)phenyl)-4-(4-hydroxypiperidin-1-yl)benzamide], the “Activity (%)” value falls from 14% to 10%.

Going from `O=C(Nc1ccc(C(=O)c2ccc(NC(=O)c3ccc(N(CCO)CCO)cc3)cc2)cc1)c1ccc(N(CCO)CCO)cc1` [Compound 327, N,N′-(carbonylbis(4,1-phenylene))bis(4-(bis(2-hydroxyethyl)amino)benzamide)] to `CN(C)c1ccc(C(=O)Nc2ccc(C(=O)c3ccc(NC(=O)c4ccc(F)cc4)cc3)cc2)cc1` [Compound 354, 4-(Dimethylamino)-N-(4-(4-(4-fluorobenzamido)benzoyl)phenyl)benzamide], the “Activity (%)” value rises from 17% to 20%.

Compared with `Cn1cccc1C(=O)Nc1ccc(Nc2ccc(NC(=O)c3ccc(N4CCC(O)CC4)c(F)c3)cc2)cc1` [Compound 815, N-(4-((4-(3-Fluoro-4-(4-hydroxypiperidin-1-yl)benzamido)phenyl)amino)phenyl)-1-methyl-1H-pyrrole-2-carboxamide], `CCn1c(C)ccc1C(=O)Nc1ccc(Nc2ccc(NC(=O)c3ccc(N4CCC(O)CC4)cc3)cc2)cc1` [Compound 900] is higher in “Activity (%)” value: 17% for the first, 24% for the second.

Going from `Cn1cccc1C(=O)Nc1ccc(C(=O)c2ccc(NC(=O)c3ccc(N4CCC(O)CC4)cc3Cl)cc2)cc1` [Compound 730, N-(4-(4-(2-Chloro-4-(4-hydroxypiperidin-1-yl)benzamido)benzoyl)phenyl)-1-methyl-1H-pyrrole-2-carboxamide] to `Cn1nccc1C(=O)Nc1ccc(C(=O)c2ccc(NC(=O)c3ccc(N4CCC(O)CC4)cc3)cc2)cc1` [Compound 720, N-(4-(4-(4-(4-Hydroxypiperidin-1-yl)benzamido)benzoyl)phenyl)-1-methyl-1H-pyrazole-5-carboxamide], the “Activity (%)” value falls from 18% to 16%.

Compared with `O=C(Nc1ccc2c(cnn2-c2ccc(NC(=O)c3cnc4cc[nH]c4c3)cc2)c1)c1ccc(N2CCC(O)CC2)cc1` [Compound 1005, N-(4-(5-(4-(4-Hydroxypiperidin-1-yl)benzamido)-1H-indazol-1-yl)phenyl)-1H-pyrrolo[3,2-b]pyridine-6-carboxamide], `CCOC(=O)c1ccc(-n2ncc3cc(NC(=O)c4ccc(N5CCC(O)CC5)cc4)ccc32)cc1` [Compound 1030, Ethyl 4-(5-(4-(4-hydroxypiperidin-1-yl)benzamido)-1H-indazol-1-yl)benzoate] is lower in “Activity (%)” value: 13% for the first, 10% for the second.

First: COc1cccc(/C=N/NC(=O)c2ccc3c(ccn3CCCC(=O)Nc3cccc(N(C)C)c3)c2)c1 [Compound 156, (E)-N-(3-(dimethylamino)phenyl)-4-(5-(2-(3-methoxybenzylidene)hydrazinecarbonyl)-1H-indol-1-yl)butanamide]
Second: COc1cccc(/C=N/NC(=O)c2ccc(C(=O)NCCC(=O)NCCO)cc2)c1 [Compound 141, (E)-N-(3-((2-hydroxyethyl)amino)-3-oxopropyl)-4-(2-(3-methoxybenzylidene)hydrazinecarbonyl)benzamide]
The “Activity (%)” value of the first is higher: 21% for the first, 19% for the second.

Compared with `N#Cc1cc(NC(=O)c2ccc(N3CCC(C(F)(F)F)CC3)cc2)ccc1Nc1ccc(NC(=O)c2cc[nH]c2)cc1` [Compound 885, N-(4-((2-Cyano-4-(4-(4-trifluoromethylpiperidin-1-yl)benzamido)phenyl)amino)phenyl)-1H-pyrrole-3-carboxamide], `COCCOc1ccc2nc(-c3ccc(C(=O)Nc4ccc(N5CCC(O)CC5)cc4)cc3)[nH]c2c1` [Compound 670, N-(4-(4-Hydroxypiperidin-1-yl)phenyl)-4-(6-(2-methoxyethoxy)-1H-benzo[d]imidazol-2-yl)benzamide] is lower in “Activity (%)” value: 21% for the first, 8% for the second.

`CN(C)c1ccc(C(=O)N/N=C/c2cc(/C=N/NC(=O)c3ccc(N(C)C)cc3)cc(COCc3ccccc3)c2)cc1` [Compound 128, (N′,N′″E,N′,N′″E)-N′,N′″-((5-((benzyloxy)methyl)-1,3-phenylene)bis(methanylylidene))bis(4-(dimethylamino)benzohydrazide)] was tested, and the “Activity (%)” value was 20%.
